For experiment [1], the target named is rumen fluid supernatant amylases. Nature of the experiment: Rumen bacterial amylase assay, protocol 2 (amylose azure). Particulars: read-out: Average IC50, rumen fluid amylase screen.
For the next experiment, the system named is strained rumen liquor. Nature of the experiment: In vitro rumen propionic acid screen. The conditions noted are these: control normalised as 100%; for Total VFA: 6 h incubation; for % Propionate: molar proportion of propionic acid in total VFA. Type of experiment: cell-based, Guernsey cow. As to the method: In Vitro Rumen Propionic Acid Screen Rumen Fluid: An eight year old dry Guernsey cow, fitted with a rumen fistula (Bar Diamond Inc. P.O. Box. 60. Bar Diamond Lane. Parma. Id. 83660-0060. […] This animal was used as a source of rumen contents, which were taken at 08:00 h (before the morning feed). The material was carried to the laboratory in a pre-warmed insulated flask, and then strained through four layers of cotton gauze into another pre-warmed bottle, which was stored in an incubator at 40° C. until the fluid was dispensed into the assay tubes. Substrate Mixture: • 68 g corn starch. Ex Sigma Cat. S-4126. • 17 g α-cellulose. Ex Sigma Cat. C-6429. • 15 g Type 1 soya flour. Ex Sigma Cat. S-9633. • Mix well. The assay was conducted in 16 ml Sorvall centrifuge tubes A tablet containing 100 mg of acarbose was placed in 10 ml of buffer and shaken until the tablet was completely disrupted, giving a 10 mg/ml solution of acarbose. […] Control tubes were prepared by replacing the acarbose solution with buffer. One ml of substrate suspension was added to all the assay tubes, followed by 3 ml of warmed degassed buffer and then by 5 ml of strained rumen liquor. Suba-Seal stoppers (No. 29) were fitted, and the head pressure in the tubes reduced by passing a hypodermic needle attached to a vacuum line through the stopper until the tube contents frothed. The tubes were then placed in a 40° C. incubator for 6 hours and shaken hourly. Pre-incubation VFA concentration were determined by preparing three tubes as for incubation but 1 ml metaphosphoric/crotonic acids solution was added immediately following the rumen liquor. These tubes were stored at 4° C. and processed with the post-incubation tubes. The incubation was terminated after 6 h by removing the stoppers and adding 1 ml of metaphosphoric/crotonic acids solution. The tubes were then centrifuged for 8 minutes at 18,000 g at 4° C., and an aliquot of the supernatant stored in an automatic liquid sampler vial until required for VFA analysis by gas chromatography. (as described in […] protocol) Production of total VFA and propionate during the incubation was determined as follows. Firstly, first the pre-incubation concentrations of total VFA and propionic acid were calculated as the mean of the analyses of the pre-incubation samples. Then for each incubated sample, post-minus pre-incubation concentration gave production during incubation. The molar proportion of propionic acid in total VFA.produced during the incubation was also calculated. The total VFA and % propionic acid values were meaned for the replicate tubes, and the mean control total VFA and % propionic acid values normalised as 100%, then the change caused by the test treatments expressed relative to this value.

In experiment [2] the test system is rumen fluid fermentation (RUSITEC chronic acidosis model). As to the kind of experiment: RUSITEC rumen simulation, chronic acidosis model: acarbose. The class given is cell-based, Guernsey cow. The conditions noted are these: for increase in butyrate production: between control and treatment periods (0 mg/vessel/d: 24%); for change in VFA production: treatment period vs preceding control period (0 mg/vessel/d: −3%). The text has this: Evaluation of Agents Using the Rumen Simulation Technique ([…]) to Model Chronic Acidosis. The in vitro rumen simulation technique ([…]), first described by Czerkawski and Breckenridge (1977) was used to evaluate the effect of the bacterial α-amylase and/or α-glucosidase inhibitor acarbose on daily pH profiles and VFA production using a commercial cattle concentrate ration (GH313-see later). […] Equipment: The apparatus consisted of two […] units each containing four-fermentation vessels. […] The feed was placed in a nylon bag (14×9 cm, 50 μm), and was gently agitated using a piston mechanism (8 strokes/min). Buffer (McDougall, 1948) was continuously infused at a rate of approximately 750 ml/day by an eight channel peristaltic pump (Watson Marlow). The effluent was collected in 1 liter glass bottles containing 20 ml of oxalic acid solution (12 g/100 ml in deionised water). This was added to inhibit further microbial activity Feed: Each vessel was fed daily with a bag containing 30 g of the commercial pelleted ration GH313 (89% dry matter) and 2.5 g barley straw (90% dry matter) chopped into 1-2 cm lengths. 7 g of corn starch (Sigma Cal. No. S4126) was added to the liquid phase of all fermenter vessels at feeding on the last four days of the experiment to simulate acute acidosis. Rumen fluid donor: Rumen fluid was collected from a five year old dry Guernsey cow. […] Rumen contents were collected via a rumen fistula (Bar Diamond Inc. P.O. Box. 60. Bar Diamond Lane. Parma. Id. 83660-0060. U.S.A) Vessel inoculation: Rumen contents were taken from the fistulated donor animal at 08:00 h (before the morning feed). The material was carried to the laboratory in pre-warmed insulated flasks, and then strained through four layers of cotton gauze into another pre-warmed insulated flask. 70 g of the solid residue were weighed into each of eight nylon bags. One bag containing rumen solids, and one bag containing fresh feed was placed in the feed chamber for each vessel. The liquid contents of each vessel were 100 ml deionised water, 200 ml of buffer artificial and 500 ml of rumen fluid. After assembling and sealing the vessels, they were placed in the water baths and the piston rod attached to the drive bar. The effluent tubes were placed in the collection flasks. The head space in each vessel was flushed with CO2 for 2 min., then the piston drive motor and buffer infusion pump were started. Daily maintenance and sampling procedure: These procedures were carried out at the same time each day. Eight feed bags were prepared, and a 1 l dispenser bottle containing infusion buffer warmed to 39° C. Treatment with acarbose: Acarbose was obtained as GlucobayTM tablets (Bayer, AAH Pharmaceuticals) Each tablet contains 100 mg acarbose. Duplicate vessels were treated with 0, 1, 10 and 100 mg/d of acarbose by adding 1 tablet to each of two feed bags to give 100 mg/vessel/d. The lower doses were prepared by dissolving/suspending a tablet in 10 ml buffer (giving a 10 mg/ml solution of acarbose). One ml of this solution was then added to 9 ml of buffer, giving a 1 mg/ml solution. One ml of each solution was then added to the contents of two feed bags, to give 10 and 1 mg/vessel/d. Finally, the acarbose was dried on to the feed by leaving the bags at room temperature overnight. Analyses: Dry matter losses from the nylon bags after 48 hours incubation were measured by drying the washed bag contents in an oven for 23 h at 65° C. Effluent samples (10 ml) were taken daily and stored at -20° C. for subsequent VFA and lactate analysis .pH was automatically recorded at 17 min. intervals using equipment supplied by Philip Harris Education. A combination electrode was fitted in each vessel via a gas-tight port in the lid. […] The recorded pH values were downloaded to a PC running […] 32 software (Philip Harris Education) and then transferred to a spreadsheet for further analysis. […]

Each structure is given as a SMILES string.

Usually IC50 stands for the concentration at which inhibition is half-maximal.

For `CC1OC(OC2C(CO)OC(OC3C(CO)OC(O)C(O)C3O)C(O)C2O)C(O)C(O)C1NC1C=C(CO)C(O)C(O)C1O` (stereo not shown) [Acarbose, acarbose], the 50% inhibitory concentration (IC50) in experiment [1] was determined as 2.39 µM. Moreover, the “Total VFA” value amounted to 96% in the experiment on strained rumen liquor (dose 0.32 μg/ml); 92% in the experiment with strained rumen liquor (dose 1.6 μg/ml); 72% in the experiment on strained rumen liquor (dose 8 μg/ml); 63% in the experiment with strained rumen liquor (dose 40 μg/ml); 58% in the experiment on strained rumen liquor (dose 200 μg/ml); 50% in the experiment with strained rumen liquor (dose 1000 μg/ml). Also, the “% Propionate” value turned out to be 97% in the experiment with strained rumen liquor (dose 0.32 μg/ml); 94% with strained rumen liquor (dose 1.6 μg/ml); 74% in the experiment with strained rumen liquor (dose 8 μg/ml); 74% in the experiment on strained rumen liquor (dose 40 μg/ml); 81% with strained rumen liquor (dose 200 μg/ml); 88% in the experiment with strained rumen liquor (dose 1000 μg/ml). In addition, the “increase in butyrate production” value in experiment [2] (1 mg/vessel/d) was 27%; in experiment [2] (10 mg/vessel/d), 76%; in experiment [2] (100 mg/vessel/d), 134%. Further, the “change in VFA production” value is given as “+3%” in experiment [2] (1 mg/vessel/d), −10% in experiment [2] (10 mg/vessel/d) and −16% in experiment [2] (100 mg/vessel/d).

Values taken from US7271158B2, “Treatment of rumen acidosis with α-amylase inhibitors” (Pfizer Inc., priority 2000, dated 2007).
